Reference: patent US6251605A, “Yeast cells having mutations in Cav1 and uses therefor” (priority 1999, dated 2001)

Target: T1, Ste2 receptor (Saccharomyces cerevisiae, UniProt D6VTK4)
T1 construct: The wild type strain and a cav1 mutant strain, transformed with the plasmid; endogenous in cells; host or cells: S. cerevisiae wild type and cav1 mutant strains carrying the FUS1-lacZ reporter plasmid
Assay: FUS1-lacZ β-galactosidase reporter assay, Ste2-mediated signaling
Format: cell-based, S. cerevisiae
Conditions: 30 minutes incubation
Description: In order to determine whether the CAV1 gene is involved in Ste2-mediated signaling, the effects of a cav1 mutation on the levels of FUS1-lacZ induction in response to o-factor were studied as described below. Transformants were grown to the mid-exponential phase in the medium SC without uracil. 100 μt aliquots of cultures were incubated in 96-well plates in the presence of increasing concentrations of α-factor at 30° C. for 30 minutes prior to assaying β-galactosidase activity. 20 μl of 6X Z-buffer (0.6 M sodium phosphate, pH 7.0, 60 mM KCl, 6 mM MgCl2, 1.6% (v/v) β-mercaptoethanol) containing 10 mM chlorophenolred-β-D-galactoside (CPRG) and 2.5% Triton X-100 was added to each aliquot followed by incubation at room temperature for 30-60 min. The enzymatic reactions were stopped by adding […] of 1 M sodium carbonate and A575 values were determined using a Biomek Plate Reader (Beckman).
The wild type strain and a cav1 mutant strain, transformed with the plasmid Cpl 584 encoding the FUS 1-lacZ reporter gene, were incubated in the presence of α-factor for 30 minutes prior to the β-galactosidase assay. […] Furthermore, the rate of ligand-independent endocytosis of Ste2 receptor, and of Ste3 receptor, respectively, decreased by approximately two-fold in the cav1 mutant. Therefore, an increase in Ste2β mediated signaling may be attributed to the reduced internalization of yeast GPCRs.

T1 sequence (D6VTK4 whole entry): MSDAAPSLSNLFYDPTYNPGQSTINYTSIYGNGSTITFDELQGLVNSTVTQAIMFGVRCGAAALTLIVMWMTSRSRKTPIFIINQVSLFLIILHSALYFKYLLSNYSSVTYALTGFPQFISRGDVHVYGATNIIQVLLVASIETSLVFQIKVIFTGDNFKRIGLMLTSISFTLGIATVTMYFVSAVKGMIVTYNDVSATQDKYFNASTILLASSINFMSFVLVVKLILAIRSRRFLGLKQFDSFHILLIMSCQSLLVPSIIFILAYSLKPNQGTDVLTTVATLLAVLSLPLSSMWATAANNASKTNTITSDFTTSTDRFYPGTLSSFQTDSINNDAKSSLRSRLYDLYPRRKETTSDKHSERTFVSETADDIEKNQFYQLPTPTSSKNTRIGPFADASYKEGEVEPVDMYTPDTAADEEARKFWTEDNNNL

## α-factor
cav1 mutant versus wild type
  higher levels of ligand-induced β-galactosidase activity in mutant strain compared with wild type strain: 50-100%
Wild type strain versus cav1 mutant strain
  estimated EC50 values for α-factor: virtually identical
